For data set [1] the following is noted: ref [32]; cited from earlier work.
The nature of data set [2]: Intestinal absorption of micellar DHA into lymph (HDL, chylomicrons; PC, TAG) in rats with lymph duct cannulation. Type of data set: in vivo, Sprague-Dawley rats. The method, then: Two types of micelle, one containing the DHA as free fatty acid, and the other containing the DHA as LPC, were prepared by sonication. All components except taurocholate were added as chloroform solutions to a glass tube and the solvent was evaporated under nitrogen. Then 10 ml of sodium taurocholate solution (12 mM, in PBS, pH 7.4) was added to the tube and the lipids dispersed by vortexing for 1 min. The mixture was then sonicated in a Sonics Vibro Cell sonicator at 40% setting for four 30 sec pulses at 1 min intervals, while the tube was immersed in ice. The resulting micelle were optically clear, and were used immediately for infusion into rats.
Thoracic lymph duct cannulation was carried out as described with slight modifications. The rats were fasted overnight before the procedure. Under analgesics and isoflurane anesthesia, the abdomen was opened, the dorsal parietal peritoneum was incised, and the aorta was dissected free from the surrounding muscle and thoracic duct. The duct was cannulated (3-5 mm) with a heparin (500 units/ml) and saline-rinsed, pre-cut catheter (16 gauge, BD Angiocath). Following insertion, the catheter was connected to ‘U” shaped secured Silastic Laboratory tubing to prevent displacement or dislodgement. Micelle (10 ml) were infused at a rate of 3 ml/h into the duodenum (Harvard pump) through a second catheter positioned into the duodenum, followed by the infusion of 10 ml PBS, at 3 ml/h. The abdomen was closed and the lymph was collected for 6 h, in 30 min fractions into tubes containing 1.0 ml of PBS, while the animal was under anesthesia. The body temperature of the animal was maintained at 37° C. with the help of a heating pad.
The volume of each lymph fraction was made up to 2.0 ml with PBS, containing 1 mM EDTA (final). The density of lymph fraction was raised to 1.063 g/ml by the addition of KBr and centrifuged at 100,000×g for 4 h at 4° C. in the TLA 100.3 rotor of the Beckman TL-100 ultracentrifuge. One ml of the bottom layer was aspirated to a new tube (HDL) and the remaining 1.0 ml was taken as the chylomicrons (CM).
Extraction and Analysis of Lipids. The total lipids of HDL and CM were extracted by the Bligh and Dyer method after spiking the samples with 25 μg each of 15:0-15:0-15:0 TAG and 17:0-17:0 PC. The lipid extract was applied to an aminopropyl silica cartridge (100 mg) in 1 ml of chloroform under gravity, and the cartridge was washed with chloroform (2×1.0 ml) to elute the TAG and cholesteryl esters. […] The PC was then eluted with 2.0 ml of chloroform: methanol (3:2, v/v)).
The temperature program was as follows: 165° C. for 1 min, raised to 210° C. at the rate of 6.5° C./min, followed by raising to 240° C. at the rate of 3.5° C./min, and maintaining at 240° C. for 10 min. The total analysis time was 26.5 min. The injection temperature was 250° C., ion source temperature 230° C. and the interface temperature was 250° C. […] The identification of individual FAME was done by comparison of retention times with the standard mixture (PUFA2, Sigma) as well as by the characteristic fragment ions (m/z 74 for saturated, m/z 55 for monounsaturated, m/z 67 for diunsaturated, and m/z 79 for polyunsaturated).

The test system of a further data set is normal adult mice. Briefly: Morris water maze test. Format: in vivo, C57BL/6 mice. The note with it: for latency time to the previous platform area / time in the target quadrant: n=5; for finding the previous platform area, faster than the control and free DHA groups / time spent in the target quadrant versus control and free DHA groups: study 1, probe trial.

The next data set concerns BDNF. Briefly: BDNF concentration in the brain regions by ELISA. Type of data set: in vivo, C57BL/6 mice. The note with it: 1 mg DHA/day, 30 days, n=6.
The nature of data set [3]: Feeding study, daily gavage for 30 days: fatty acid and DHA lipid species of plasma, liver, heart, adipose tissue and brain regions.
A short description of data set [4]: Feeding free EPA or LPC-EPA for 15 days: omega 3 fatty acids and arachidonic acid in tissues. Type of data set: in vivo, Mice. Conditions: oral. The method, then: Mice were fed oral preparations of free EPA or LPC-EPA at about 1 mg/kg per day for 15 days. The compounds were dispersed in corn oil (80 μl) and fed daily by gavge.
Experiment in data set [5]: as above
Format: in vivo, Mice. The note with it: 1 mg EPA/day for 15 days.

The nature of data set [6]: Isomerization / isomer stability of LPC-DHA. Format: physicochemical. The method, then: LPC-DHA was prepared by the hydrolysis of 16:0-22:6 PC by immobilized Mucor lipase (Lipozyme) by a modification of the published procedure. Briefly, 100 mg of Lipozyme was added to 50 mg of 16:0-22:6 PC dissolved in 1 ml of 95:5 (v/v) ethanol: water. The reaction mixture was incubated at 37° C. for 72 h under nitrogen with shaking. The reaction mixture was dried under nitrogen and extracted with 4 ml of ethanol: water: hexane (2:1:1, by vol) mixture to remove the free fatty acid. The lower layer was concentrated under nitrogen and extracted by Bligh and Dyer procedure. The final sample contained 95% LPC, the rest being unhydrolyzed PC, as determined by lipid phosphorus estimation after TLC separation. Although this enzyme produces sn-2 22:6 LPC, this isomer is unstable, and is non-enzymatically isomerized to sn-1-22:6 LPC [24,25].
sn-2 DHA LPC was prepared by the hydrolysis of 16:0-22:6 PC with immobilized Mucor lipase (Lipozyme) by a modification of the published procedure^44. […] The preparation contained >95% of lipid phosphorus in LPC DHA and the rest in unhydrolyzed PC, as determined by TLC, and was used for feeding studies without further purification. […] More than 95% of the 2-acyl LPC DHA was converted to 1-acyl isomer under these conditions, as determined by LC/MS.

For data set [7] the following is noted: cited from earlier work.
[8] abbreviates: about 1 mg/kg per day for 15 days.

The values below come from patent publication US10555957B2, “Methods and compositions for enriching DHA levels in the brain” (The Board of Trustees of the University of Illinois, a body …, priority 2017, dated 2020).

Several values for one entry are separate records, joined by “and”; a condition that tells them apart may be missing. Identical values can stand only once. Some results are limits rather than exact numbers.

Text for BDNF: Therefore, we determined BDNF concentration in the brain regions by ELISA to complement our MWM data.

As for `CCCCCCCCCCCCCCCC(=O)OCC(O)COP(=O)([O-])OCC[N+](C)(C)C` (stereo not drawn) [16:0 LPC], in [1], the “recovery of 16:0 in lymph PC after infusion of 16:0 LPC” value is recorded as 25-30%.
Consider `CC/C=C\C/C=C\C/C=C\C/C=C\C/C=C\C/C=C\CCC(=O)O` [free DHA, (4Z,7Z,10Z,13Z,16Z,19Z)-docosa-4,7,10,13,16,19-hexaenoic acid, reference compound], for which the “percentage of 22:6/22:6/18:1 TAG species” value in data set [2] (HDL and CM, free DHA compared to LPC-DHA) was “significantly higher”. Further, the “TAG species containing DHA at all 3 positions” value in data set [2] (free DHA compared to LPC-DHA absorption) is listed as “significantly higher”. Besides, in data set [2], the “significant amount of free DHA in the lymph after infusion” value was “not observed”. In the data set on normal adult mice (second study, probe trial), the “latency time to the previous platform area” value came out at 47.1 s and the “time in the target quadrant” value was 12 s. The “BDNF content in regions of the brain” value in the data set with BDNF is “no change”. For the same compound, the “DHA concentration and 22:6/20:4 ratio in adipose tissue” value in data set [3] (1 mg DHA/day, 30 days) is given as “increase”. Moreover, in data set [3] (LC/MS/MS), the “20:4-22:6 PC in the hippocampus” value is given as “increased”, the “DHA-PC species in plasma” value is listed as “not”, the “major species of DHA-PE in the hippocampus” value was “not” and the “plasma TAG species containing DHA” value is recorded as “increased more”. In addition, in data set [3] (LC/MS/MS, 1 mg DHA/day, 30 days), the “LPC DHA concentration of plasma” value was “not”. Further, the “22:6/20:4 ratio in brain regions” value in [3] (all regions of brain) is listed as “no significant increase”. Moreover, in data set [3] (equal amount of DHA, 30 days), the “increase of brain DHA levels in normal adult mice” value was “did not appreciably increase”.
With `CC/C=C\C/C=C\C/C=C\C/C=C\C/C=C\CCCC(=O)O` [free EPA, eicosapentaenoic acid], in data set [4] (15 days), the “all three n-3 fatty acids in the liver” value is “increased”, the “decrease in liver arachidonic acid level” value is approximately 60% and the “decrease of brain content of arachidonic acid” value is on record as approximately 12%. In [4] (setting [8]), the “increase of brain EPA (in words)” value is on record as “to a small extent” and the “increase of total amount of brain Omega 3 fatty acids (EPA+DPA+DHA)” value was “no change”. For the same compound, the “increase of brain DHA content” value in data set [4] (about 1 mg/kg per day for 15 days, corn oil gavage) was “no effect”. In data set [5], the “enriching the total omega 3 fatty acids in the heart” value was “equally efficient”, the “omega 3 fatty acid content of adipose tissue” value is “enriched more” and the “omega 3 fatty acids in erythrocytes” value is “increased”.
Consider `CC/C=C\C/C=C\C/C=C\C/C=C\C/C=C\C/C=C\CCC(=O)OC[C@@H](O)COP(=O)([O-])OCC[N+](C)(C)C` [sn-1 DHA LPC], for which the “acquisition phase, learning the location of the platform by Day 5” value in the data set on normal adult mice (second study) was “faster”. Also, in the data set on normal adult mice (second study, probe trial), the “latency time to the previous platform area” value turned out to be 12.7 s and the “time in the target quadrant” value is 29.9 s. Also, in the data set on normal adult mice, the “finding the previous platform area, faster than the control and free DHA groups” value was found to be 7 times; the “time spent in the target quadrant versus control and free DHA groups” value is recorded as “twice as long”. Moreover, the “BDNF content in regions of the brain” value in the data set with BDNF is on record as “significantly increased”. Also, in [3] (mouse, in vivo), the “18:1-22:6 PC in plasma, between the two LPC isomers” value was “greater increase”; the “22:6/20:4 ratio in liver” value is on record as “significantly increased”; the “DHA concentration in liver” value is “did not reach statistical significance”; the “enrichment of all the brain regions with DHA” value is listed as “significantly enriched”. In [3] (mouse, in vivo), the “increase in plasma LPC DHA, sn-1 DHA LPC compared to sn-2 DHA LPC” value is recorded as 28%; the “increase of DHA content (nmol/mg) in striatum and amygdala” value is given as “did not reach statistical significance”.
As to `CC/C=C\C/C=C\C/C=C\C/C=C\C/C=C\C/C=C\CCC(=O)O[C@H](CO)COP(=O)([O-])OCC[N+](C)(C)C` [sn-2 DHA LPC], in the data set with normal adult mice, the “finding the previous platform area, faster than the control and free DHA groups” value was determined as 7 times; the “time spent in the target quadrant versus control and free DHA groups” value is “twice as long”. In the data set with BDNF, the “BDNF content in regions of the brain” value is given as “significantly increased”. Further, the “isomerization to the sn-1 isomer, compared with sn-2 16:0 LPC” value in data set [6] (physiological pH and temperature, unpublished results) is given as “much slower”. Besides, in data set [6] (stored in chloroform: methanol (9:1) at −20° C., at least 4 weeks), the “LPC remaining as sn-2 isomer” value was “Over 90%”. Moreover, in data set [3] (1 mg DHA/day, 30 days), the “22:6/20:4 ratio in liver” value is on record as “increase”, the “DHA concentration in liver” value is “significantly increased” and the “concentration of 20:4 in liver” value is “parallel decrease”. Also, the “enrichment of all the brain regions with DHA” value in data set [3] (cortex, cerebellum, hippocampus, striatum, amygdala, % of total fatty acids) is “significantly enriched”.
“docosahexaenoic acid-lysophosphatidylcholine [LPC-DHA]”: in data set [7] (kinetic studies [7]), the “brain uptake of injected compound compared with free DHA” value is on record as “higher”. The “efficiency of passing through the BBB compared with free fatty acid” value in [7] (previous studies in animals [5,6]) is on record as “about 10 times”. Also, the “percentage of 16:0/22:6 PC” value in [2] (HDL and CM, LPC-DHA compared to free DHA absorption) is given as “significantly lower”. The “significant amount of free DHA in the lymph after infusion” value in data set [2] is on record as “not observed”. Further, the “increase in amount of DHA recovered in lymph HDL, compared to free DHA absorption” value in data set [2] (lymph HDL) is more than 2 fold. The “hydrolysis in the intestinal lumen (intestinal contents after the 6 h lymph collection)” value in data set [2] (some experiments) is recorded as “no hydrolysis of LPC in the lumen”. In addition, the “percent of whole lymph DHA appearing in PC, LPC compared to free fatty acid” value in data set [2] (whole lymph) was 5 times. In addition, the “percent of whole lymph DHA appearing in PC” value in [2] (whole lymph, mean±SEM) is 18.72±2.88% and 18%. Further, in the data set on normal adult mice (probe trial), the “decrease in the latency to previous platform area, compared to the control or free DHA treated animals” value was found to be 7 fold and the “increase in the time spent in the target quadrant, compared to the control or free DHA treated animals” value is 2 fold. The “increase of DHA content in most regions of the brain (nmol of DHA per mg wet weight)” value in [3] (1 mg DHA/day, 30 days) is listed as 2-3 fold. In addition, the “percentage of DHA in plasma” value in data set [3] (% of total fatty acids, 1 mg DHA/day, 30 days) is on record as “greater”.
